13 compounds from PubChem BioAssay (NCI) can be followed below.

SMILES strings stand for the structures.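 Assay format: 96-well plates, 48-hour exposure. TGI: concentration producing complete growth inhibition.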

As a reminder, the TGI is the concentration at which net growth stops.

Test systems include 786-0 renal; HOP-62 NSCLC; K-562 leukemia; NCI-H226 lung; NCI-H460 lung; RXF 393 renal; SK-MEL-2 melanoma; SN12C renal; T-47D breast; U251 CNS.
Test in all cases: DTP human tumour cell line panel, 48 h

As for `COc1cc2c(cc1OCc1ccccc1)NC(=O)[C@@H]1CCCN1C2=O`, the TGI in the test with 786-0 renal, with HOP-62 NSCLC, in the test with K-562 leukemia, in the test with NCI-H226 lung, in the test on NCI-H460 lung and in the test with RXF 393 renal was greater than 100 µM each time. In addition, the total growth inhibition concentration (TGI) in the test with SK-MEL-2 melanoma, in the test on SN12C renal, with T-47D breast and in the test with U251 CNS was greater than 100 µM throughout.
As for `CC1=C(C)SC(=C2Sc3c(n(C)c(=O)n(C)c3=O)S2)S1`, the TGI was 34.8 µM in the test on 786-0 renal; 41.3 µM with HOP-62 NSCLC; greater than 100 µM in the test with K-562 leukemia; 48.5 µM in the test with NCI-H226 lung; greater than 100 µM in the test with NCI-H460 lung; greater than 100 µM in the test with RXF 393 renal. The TGI was 79.1 µM with SK-MEL-2 melanoma, greater than 100 µM with SN12C renal, greater than 100 µM in the test with T-47D breast and 18.9 µM in the test with U251 CNS.
Turning to `CC1(C)C=C(/C=C2/N(S(=O)(=O)C(F)(F)F)C(/C=C3/N(S(=O)(=O)C(F)(F)F)C(C)(C#N)CC3(C)C)=CC2(C)C)N=C1/C=C1/CC(C)(C)C(=O)N1` (stereo not given), the TGI in the test on 786-0 renal is greater than 100 µM; with HOP-62 NSCLC, greater than 100 µM; with K-562 leukemia it was greater than 100 µM; with NCI-H226 lung, greater than 100 µM; in the test with NCI-H460 lung it was greater than 100 µM; in the test with RXF 393 renal, 81.3 µM. In addition, the concentration for total growth inhibition (TGI) in the test with SK-MEL-2 melanoma, in the test with SN12C renal, in the test with T-47D breast and with U251 CNS was greater than 100 µM each time.
With `COc1ccc2c(c1OC)C(=O)N1C2=Cc2c(cc3c(c2OC)OCO3)CC1N(C)C` (stereo not given), the TGI with 786-0 renal, in the test with HOP-62 NSCLC, in the test with K-562 leukemia, in the test on NCI-H226 lung, with NCI-H460 lung and in the test with RXF 393 renal was greater than 100 µM throughout. In addition, the TGI in the test with SK-MEL-2 melanoma was greater than 100 µM; in the test with SN12C renal, greater than 100 µM; in the test on T-47D breast, 74.4 µM; in the test with U251 CNS, greater than 100 µM.
Take `NC(=O)c1ccc[n+](C2=C([O-])c3ccccc3C(=O)/C2=N\S(=O)(=O)c2ccccc2)c1`: the TGI with 786-0 renal was 32.3 µM; in the test with HOP-62 NSCLC, 33 µM; with K-562 leukemia, greater than 100 µM; in the test with NCI-H226 lung, 28.9 µM; with NCI-H460 lung, 47.9 µM; with RXF 393 renal, 29.5 µM. For the same compound, the TGI in the test with SK-MEL-2 melanoma amounted to 25.7 µM; in the test with SN12C renal, 30.9 µM; in the test with T-47D breast, 53.6 µM; in the test on U251 CNS, 29 µM.
Regarding `Cn1c(=O)cc(NNc2ccc(Cl)c(Cl)c2)[nH]c1=O`, the TGI with 786-0 renal worked out at 25.9 µM; in the test with HOP-62 NSCLC it was 31.3 µM; in the test with K-562 leukemia it was 23.1 µM; with NCI-H226 lung it was 55.9 µM; in the test with NCI-H460 lung it was 20.3 µM; in the test on RXF 393 renal, 38.8 µM. Moreover, the TGI with SK-MEL-2 melanoma came to 33.6 µM; with SN12C renal, 21.2 µM; in the test with T-47D breast it was 21.1 µM; in the test with U251 CNS, 24.8 µM.
As for `Clc1ccc(/C(=C/c2ccccc2)Cn2ccnc2)cc1`, the TGI in the test on 786-0 renal was greater than 100 µM; in the test with HOP-62 NSCLC, greater than 100 µM; with K-562 leukemia, greater than 100 µM; in the test on NCI-H226 lung it was greater than 100 µM; with NCI-H460 lung, greater than 100 µM; in the test on RXF 393 renal it was 50.7 µM. Also, the TGI in the test with SK-MEL-2 melanoma was 40.8 µM; in the test on SN12C renal, greater than 100 µM; with T-47D breast, greater than 100 µM; with U251 CNS it was greater than 100 µM.
For the compound `CC(=O)Oc1ccn2nc(C)c(Br)c2c1`, the TGI in the test on 786-0 renal, in the test with HOP-62 NSCLC, in the test with K-562 leukemia, in the test on NCI-H226 lung, in the test with NCI-H460 lung and in the test with RXF 393 renal was greater than 100 µM throughout. In addition, the TGI in the test with SK-MEL-2 melanoma, in the test on SN12C renal, in the test with T-47D breast and in the test with U251 CNS was greater than 100 µM each time.
Take `CCC1(CC)C(=O)N(C(=O)c2cc(OC)c(OC)c(OC)c2)N(C(=O)c2cc(OC)c(OC)c(OC)c2)C1=O`: the TGI in the test with 786-0 renal, in the test on HOP-62 NSCLC, in the test with K-562 leukemia, in the test on NCI-H226 lung, in the test on NCI-H460 lung and with RXF 393 renal was greater than 50 µM in each case. The total growth inhibition concentration (TGI) in the test with SK-MEL-2 melanoma, in the test on SN12C renal, in the test with T-47D breast and in the test with U251 CNS was greater than 50 µM in each case.
On to `Cc1nc2c(=O)n(-c3ccccc3)c(=O)n(-c3ccccc3)c2o1`, for which the TGI with 786-0 renal, with HOP-62 NSCLC, in the test with K-562 leukemia, in the test on NCI-H226 lung, in the test on NCI-H460 lung and with RXF 393 renal was greater than 100 µM each time. Besides, the TGI in the test with SK-MEL-2 melanoma, in the test on SN12C renal, with T-47D breast and in the test with U251 CNS was greater than 100 µM throughout.
Turning to `c1ccc2c(c1)cc1ccc3cccc4ccc2c1c34`, the TGI in the test on 786-0 renal, in the test with HOP-62 NSCLC, with K-562 leukemia, with NCI-H226 lung, with NCI-H460 lung and with RXF 393 renal was greater than 100 µM in each case. Moreover, the TGI in the test on SK-MEL-2 melanoma, with SN12C renal, in the test with T-47D breast and with U251 CNS was greater than 100 µM in each case.
On to `CC1=NN2C(=N)/C(=C/c3ccc(F)cc3)C(=O)N=C2S1`, for which the TGI in the test on 786-0 renal, in the test with HOP-62 NSCLC, in the test with K-562 leukemia, with NCI-H226 lung, in the test on NCI-H460 lung and in the test with RXF 393 renal was greater than 100 µM each time. Besides, the TGI with SK-MEL-2 melanoma, with SN12C renal, in the test with T-47D breast and in the test with U251 CNS was greater than 100 µM throughout.
Turning to `COc1ccc(-c2cc3cc(Cl)cc(Cl)c3oc2=O)cc1OC`, the TGI was greater than 100 µM with 786-0 renal; greater than 100 µM with HOP-62 NSCLC; greater than 100 µM with K-562 leukemia; greater than 100 µM in the test with NCI-H226 lung; greater than 100 µM in the test on NCI-H460 lung; 75.8 µM in the test with RXF 393 renal. Moreover, the TGI with SK-MEL-2 melanoma, in the test on SN12C renal, in the test on T-47D breast and in the test with U251 CNS was greater than 100 µM throughout.
